Reference: patent US7790474B1, “p53 modulators” (Schering Corporation, priority 2005, dated 2010)

The compounds below were run on GST-p53 DNA binding domain (aa 92-aa 312) (assay: Scintillation Proximity Assay (displacement of 3H-labeled p53 binder)). Conditions: percentage of 3H-labeled ligand remaining bound, number in brackets = average of n.
Method: [drawing 38] (^3H at C bearing the chlorophenyl groups and the piperazinyl group), a radiolabeled small molecule which binds to p53, and the GST-p53 DNA binding domain (aa 92-aa 312), a quantitative screening assay was used to determine if various molecules comprise p53 binding activity. The assay is based on Scintillation Proximity Assay (SPA) technology. The complex of GST-p53,
[drawing 39] and Glutathione-SPA beads (Amersham Biosciences) were incubated with mixing for 1 hour at room temperature in the presence of the compounds to be screened. The signal was read on a Microbeta.
The numerical values expressed refer to the percentage of labeled
[drawing 40] remaining bound to the mutant p53 protein after exposure to the indicated compound.

Row | Compound | SPA ASSAY % Residual T @ 2 ug/mL of drug (Average of)
1 | COC(=O)[C@@H](Nc1nc(CN2CCN(C(=O)Nc3ccc(C(C)C)cc3)CC2)nc2ccccc12)C(C)C [Formula 11] | 39.5%
2 | CN(C)CCCNc1nc(CN(C)Cc2ccc(C#N)cc2)nc2ccccc12 [Formula 70] | 54.1%
3 | CN(C)CCCNc1nc(CN2CCN(C(=O)Nc3ccc(C#N)cc3)CC2)nc2ccccc12 [Formula 40] | 52.5%
4 | CN(C)CCCNc1nc(CN(C)C2CCC(C(F)(F)F)CC2)nc2ccccc12 (stereo not shown) [Formula 106] | 52.8%
5 | NC(=O)C1CCN(c2nc(CN3CCN(C(c4ccc(Cl)cc4)c4ccc(Cl)cc4)CC3)nc3ccccc23)CC1 [Formula 52] | 79.9%
6 | CN(C)CCCNc1nc(CN(C)Cc2c(F)cccc2F)nc2ccccc12 [Formula 75] | 58.9%
7 | CN(C)CCCOc1nc(CN2CCN(C(c3ccc(Cl)cc3)c3ccc(Cl)cc3)CC2)nc2ccccc12 [Formula 37] | 77.0%
8 | CN(C)CCCNc1nc(CN(C)Cc2ccccc2C#N)nc2ccccc12 [Formula 68] | 52.7%
9 | CCOC(=O)C1CC1CN(C)Cc1nc(NCCCN(C)C)c2ccccc2n1 (stereo not shown) [Formula 76] | 57.8%
10 | Clc1ccc(C(c2ccc(Cl)cc2)N2CCN(Cc3nc(N4CCN(c5ccccc5)CC4)c4ccccc4n3)CC2)cc1 [Formula 46] | 87.5%
11 | CN(C)CCCNc1nc(CN2CCN(C(c3ccccc3)c3ccc(OC(F)(F)F)cc3)CC2)nc2ccccc12 (stereo not shown) [Formula 10] | 46.1%
12 | CN(C)CC[C@H](Nc1nc(CN2CCN(C(c3ccc(Cl)cc3)c3ccc(Cl)cc3)CC2)nc2ccccc12)C(N)=O [Formula 115] | 44.8%
13 | COC(=O)[C@@H](Nc1nc(CNC(=O)Nc2cccc(Br)c2)nc2ccccc12)C(C)C [Formula 58] | 44.9%
14 | CC(C)CCN(C)Cc1nc(NCCCN(C)C)c2ccccc2n1 [Formula 61] | 31.6 (3) %
15 | CN(C)CCCNc1nc(CN(C)C2CCC3(CC2)OCCO3)nc2ccccc12 [Formula 104] | 23.0 (2) %
16 | COC(=O)[C@@H](Nc1nc(CNC(=O)Nc2ccccc2-c2ccccc2)nc2ccccc12)C(C)C [Formula 57] | 52.7%

Row | Compound | SPA ASSAY % Residual T @ 2 ug/mL of drug (Average of)
17 | CN(C)CCCNc1nc(CN(C)Cc2cccc3cc[nH]c23)nc2ccccc12 [Formula 77] | 25.7%
18 | CN(C)CCCNc1nc(CN(C)C2CCC(C(C)(C)C)CC2)nc2ccccc12 (stereo not shown) [Formula 103] | 7.8 (2) %
19 | CN(C)CCCC[C@H](Nc1nc(CN2CCN(C(c3ccc(Cl)cc3)c3ccc(Cl)cc3)CC2)nc2ccccc12)C(N)=O [Formula 119] | 58.5%
20 | CN(C)CCCNc1nc(CN(C)Cc2ccc3ccccc3c2)nc2ccccc12 [Formula 83] | 45.9 (3) %
21 | CN(C)CCCNc1nc(CN(C)C2CCCC(C(F)(F)F)C2)nc2ccccc12 (stereo not shown) [Formula 105] | 57.7%
22 | CCOC(=O)[C@H](CCN(C)C)Nc1nc(CN2CCN(C(c3ccc(Cl)cc3)c3ccc(Cl)cc3)CC2)nc2ccccc12 [Formula 116] | 47.7%
23 | CN(C)CCCNc1nc(CN(C)C2CCC(C#N)(c3ccccc3)CC2)nc2ccccc12 (stereo not shown) [Formula 109] | 5.5 (2) %
24 | COc1ccc(Cl)cc1NC(=O)NCc1nc(N[C@H](C(N)=O)C(C)C)c2ccccc2n1 [Formula 60] | 60.0%
25 | CN(C)CCCNc1nc(CN2CCN(Cc3cccc4cc[nH]c34)CC2)nc2ccccc12 [Formula 13] | 37.9%
26 | COC(=O)[C@@H](Nc1nc(CNC(=O)Nc2ccc(Cl)c(Cl)c2)nc2ccccc12)C(C)C [Formula 55] | 57.0%
27 | COc1ccc(/C=C/c2nc(NCCCN(C)C)c3ccccc3n2)cc1 [Formula 114] | 61.3%
28 | COC(=O)[C@@H](Nc1nc(CN2CCN(C(=O)NC(c3ccccc3)c3ccccc3)CC2)nc2ccccc12)C(C)C [Formula 12] | 45.6%
29 | CN(C)CCCNc1nc(CN(C)C2CCC3CCCCC3C2)nc2ccccc12 (stereo not shown) [Formula 102] | 28.7(3) %
30 | CN(C)CCCNc1nc(CN(C)Cc2ccccc2)nc2ccccc12 [Formula 35] | 22.2%
31 | CN(C)CCCNc1nc(CN(C)Cc2ccc(C#Cc3ccccc3)cc2)nc2ccccc12 [Formula 92] | 61.1%

The compounds below were run on DLD-1 human colon adenocarcinoma cells (assay: In vivo anti-tumor study, staged model). Conditions: 10 mpk orally every 12 hours for 26 days, dosing from day 10.
Design: species or system Nude mice
Method: Staged Model. In this model the initiation of therapy was delayed until the tumors had reached a certain volume. Nude mice (5-6 week old females) were inoculated with 5×10^6 DLD-1 human colon adenocarcinoma cells on day 1, and then randomized on day 10. The dosing of these mice was started on day 10. Groups 1 to 5, having 10 mice in each group, were dosed orally every 12 hours with no treatment, vehicle,
[drawing 36] 50 mpk, respectively, for 26 days. All animals were carefully monitored at least daily and each tumor was measured twice a week. The tumor growth inhibition level observed is set forth below in Table 4.

Row | Compound | % inhibition (tumor growth), staged model [%]
32 | CN(C)CCCNc1nc(CN2CCN(C(c3ccc(Cl)cc3)c3ccc(Cl)cc3)CC2)nc2ccccc12 [drawing 37] | 10.15

Same assay, conditions: 30 mpk orally every 12 hours for 26 days, dosing from day 10

Row | Compound | % inhibition (tumor growth), staged model [%]
33 | CN(C)CCCNc1nc(CN2CCN(C(c3ccc(Cl)cc3)c3ccc(Cl)cc3)CC2)nc2ccccc12 [drawing 37] | 14.73

Same assay, conditions: 50 mpk orally every 12 hours for 26 days, dosing from day 10

Row | Compound | % inhibition (tumor growth), staged model [%]
34 | CN(C)CCCNc1nc(CN2CCN(C(c3ccc(Cl)cc3)c3ccc(Cl)cc3)CC2)nc2ccccc12 [drawing 37] | 44.31

These compounds were tested on DLD-1 human colon adenocarcinoma cells (assay: In vivo anti-tumor study, unstaged model). Conditions: 10 mpk orally every 12 hours for 31 days, dosing from day 4.
Design: species or system Nude mice
Method: Unstaged Model. In this model, the therapy was started immediately after the tumor cells had been inoculated. Nude mice (5-6 week old females) were inoculated with 5×10^6 DLD-1 human colon adenocarcinoma cells on day 1, and randomized on day 3. The dosing of these mice was started on day 4. Groups 1 to 4, having 10 mice in each group, were dosed orally every 12 hours with vehicle,
[drawing 33] 50 mpk, respectively, for 31 days. All animals were carefully monitored at least daily and each tumor was measured twice a week. The tumor growth inhibition level observed is set forth below in Table 3.

Row | Compound | % inhibition (tumor growth), unstaged model [%]
35 | CN(C)CCCNc1nc(CN2CCN(C(c3ccc(Cl)cc3)c3ccc(Cl)cc3)CC2)nc2ccccc12 [drawing 34] | 48.30

Same assay, conditions: 30 mpk orally every 12 hours for 31 days, dosing from day 4

Row | Compound | % inhibition (tumor growth), unstaged model [%]
36 | CN(C)CCCNc1nc(CN2CCN(C(c3ccc(Cl)cc3)c3ccc(Cl)cc3)CC2)nc2ccccc12 [drawing 34] | 43.23

Same assay, conditions: 50 mpk orally every 12 hours for 31 days, dosing from day 4

Row | Compound | % inhibition (tumor growth), unstaged model [%]
37 | CN(C)CCCNc1nc(CN2CCN(C(c3ccc(Cl)cc3)c3ccc(Cl)cc3)CC2)nc2ccccc12 [drawing 34] | 78.96
